Test results: ChEMBL document CHEMBL4257456, “Molecular modeling study, synthesis and biological evaluation of combretastatin A-4 analogues as anticancer agents and tubulin inhibitors” (Medchemcomm, 2018)

Assays:
[1] = test system: HepG2; experiment: Antiproliferative activity against human HepG2 cells after 72 hrs by CCK-8 assay; format: functional, cell-based; conditions: HepG2, 72 h
[2] = test system: HeLa; experiment: Antiproliferative activity against human HeLa cells after 72 hrs by CCK-8 assay; format: functional, cell-based
[3] = test system: HCT-116; experiment: Antiproliferative activity against human HCT116 cells after 72 hrs by CCK-8 assay; format: functional, cell-based; conditions: HCT-116, 72 h
[4] = test system: A549; experiment: Antiproliferative activity against human A549 cells after 72 hrs by CCK-8 assay; format: functional, cell-based; conditions: A549, 72 h
[5] = test system: MGC-803; experiment: Antiproliferative activity against human MGC803 cells after 72 hrs by CCK-8 assay; format: functional, cell-based; conditions: MGC-803, 72 h
[6] = Inhibition of pig brain tubulin polymerization by spectrophotometric analysis; set-up: species or system Sus scrofa
[7] = test system: MCF7; experiment: Antiproliferative activity against human MCF7 cells after 72 hrs by CCK-8 assay; format: functional, cell-based; conditions: MCF7, 72 h

Row | IC50 [6] [µM] | Structure (SMILES) | IC50 [1] [µM] | IC50 [2] [µM] | IC50 [3] [µM] | IC50 [4] [µM] | IC50 [5] [µM] | IC50 [7] [µM]
1 | > 200 | COc1ccc(-c2oc3cc(OC)c(F)cc3c2C(=O)c2cc(OC)c(OC)c(OC)c2)cc1 | 4.75 | 19.1 | 78.2 | 6.87 | 47.3 | 6.49
2 | > 200 | CCOc1ccc(-c2[nH]c3cc(OC)ccc3c2C(=O)c2cc(OC)c(OC)c(OC)c2)cc1 | – | – | – | – | – | –
3 | 0.86 | CCOc1ccc(-c2oc3cc(OC)ccc3c2C(=O)c2cc(OC)c(OC)c(OC)c2)cc1 | 1.31 | 8.99 | 12.6 | 1.37 | 9.97 | 0.91

Row | Structure (SMILES) | IC50 [6] [µM] | IC50 [1] [µM] | IC50 [2] [µM] | IC50 [3] [µM] | IC50 [4] [µM] | IC50 [5] [µM] | IC50 [7] [µM]
4 | COc1ccc(/C=C\c2cc(OC)c(OC)c(OC)c2)cc1O [COMBRETASTATIN A4] | 0.88 | 16 | 11.3 | 9 | 5.99 | 1.76 | 0.67
5 | COc1ccc(/C=C\c2cc(OC)c(OC)c(OC)c2)cc1OP(=O)(O)O [FOSBRETABULIN DISODIUM] | 4.79 | 0.27 | 0.56 | 0.24 | 0.4 | 0.47 | 0.96
